Experimental data reported in ChEMBL document CHEMBL4673372, “1,2,3-triazole-thiazole hybrids: Synthesis, in vitro antimicrobial activity and antibiofilm studies” (Bioorg Med Chem Lett, 2021).
Converted amounts (≈) assume the structure as drawn.

system: Candida albicans; experiment: Inhibition of biofilm formation in Candida albicans MTCC 3017 incubated for 24 hrs by crystal violet staining based microtiter plate method; type: functional, organism-based; conditions: not given

SMILES	IC50
COc1ccc(-n2cc(COc3ccc(/C=N/Nc4nc(-c5cc6cccc(Br)c6oc5=O)cs4)cc3)nn2)cc1	Not Active
COc1ccc(-n2cc(COc3ccc(/C=N/Nc4nc(-c5cc6cc([N+](=O)[O-])cc([N+](=O)[O-])c6oc5=O)cs4)cc3)nn2)cc1	Not Active

system: Pseudomonas aeruginosa; experiment: Inhibition of biofilm formation in Pseudomonas aeruginosa MTCC 2453 incubated for 24 hrs by crystal violet staining based microtiter plate method; type: functional, organism-based; conditions: not given

SMILES	IC50
COc1ccc(-n2cc(COc3ccc(/C=N/Nc4nc(-c5cc6cccc(Br)c6oc5=O)cs4)cc3)nn2)cc1	Not Active
COc1ccc(-n2cc(COc3ccc(/C=N/Nc4nc(-c5cc6cc([N+](=O)[O-])cc([N+](=O)[O-])c6oc5=O)cs4)cc3)nn2)cc1	Not Active

system: Escherichia coli; experiment: Inhibition of biofilm formation in Escherichia coli MTCC 739 incubated for 24 hrs by crystal violet staining based microtiter plate method; type: functional, organism-based; conditions: not given

SMILES	IC50
COc1ccc(-n2cc(COc3ccc(/C=N/Nc4nc(-c5cc6cccc(Br)c6oc5=O)cs4)cc3)nn2)cc1	Not Active
COc1ccc(-n2cc(COc3ccc(/C=N/Nc4nc(-c5cc6cc([N+](=O)[O-])cc([N+](=O)[O-])c6oc5=O)cs4)cc3)nn2)cc1	Not Active

system: Raoultella planticola; experiment: Inhibition of biofilm formation in Klebsiella planticola MTCC 530 incubated for 24 hrs by crystal violet staining based microtiter plate method; type: functional, organism-based; conditions: not given

SMILES	IC50
COc1ccc(-n2cc(COc3ccc(/C=N/Nc4nc(-c5cc6cc([N+](=O)[O-])cc([N+](=O)[O-])c6oc5=O)cs4)cc3)nn2)cc1	Not Active

same assay, conditions: Klebsiella planticola, MTCC 530, 24 h; read-out: IC50

SMILES	IC50 [µM]
COc1ccc(-n2cc(COc3ccc(/C=N/Nc4nc(-c5cc6cccc(Br)c6oc5=O)cs4)cc3)nn2)cc1	42.3

system: Micrococcus luteus; experiment: Inhibition of biofilm formation in Micrococcus luteus MTCC 2470 incubated for 24 hrs by crystal violet staining based microtiter plate method; type: functional, organism-based; conditions: not given

SMILES	IC50
COc1ccc(-n2cc(COc3ccc(/C=N/Nc4nc(-c5cc6cccc(Br)c6oc5=O)cs4)cc3)nn2)cc1	Not Active
COc1ccc(-n2cc(COc3ccc(/C=N/Nc4nc(-c5cc6cc([N+](=O)[O-])cc([N+](=O)[O-])c6oc5=O)cs4)cc3)nn2)cc1	Not Active

system: Bacillus subtilis; experiment: Inhibition of biofilm formation in Bacillus subtilis MTCC 121 incubated for 24 hrs by crystal violet staining based microtiter plate method; type: functional, organism-based; conditions: not given

SMILES	IC50
COc1ccc(-n2cc(COc3ccc(/C=N/Nc4nc(-c5cc6cc([N+](=O)[O-])cc([N+](=O)[O-])c6oc5=O)cs4)cc3)nn2)cc1	Not Active

same assay, conditions: Bacillus subtilis, MTCC 121, 24 h; read-out: IC50

SMILES	IC50 [µM]
COc1ccc(-n2cc(COc3ccc(/C=N/Nc4nc(-c5cc6cccc(Br)c6oc5=O)cs4)cc3)nn2)cc1	35.4

system: Staphylococcus aureus; experiment: Inhibition of biofilm formation in Staphylococcus aureus MLS16 MTCC 2940 incubated for 24 hrs by crystal violet staining based microtiter plate method; type: functional, organism-based; conditions: not given

SMILES	IC50
COc1ccc(-n2cc(COc3ccc(/C=N/Nc4nc(-c5cc6cccc(Br)c6oc5=O)cs4)cc3)nn2)cc1	Not Active
COc1ccc(-n2cc(COc3ccc(/C=N/Nc4nc(-c5cc6cc([N+](=O)[O-])cc([N+](=O)[O-])c6oc5=O)cs4)cc3)nn2)cc1	Not Active

system: Staphylococcus aureus; experiment: Inhibition of biofilm formation in Staphylococcus aureus […] incubated for 24 hrs by crystal violet staining based microtiter plate method; type: functional, organism-based; conditions: not given

SMILES	IC50
COc1ccc(-n2cc(COc3ccc(/C=N/Nc4nc(-c5cc6cc([N+](=O)[O-])cc([N+](=O)[O-])c6oc5=O)cs4)cc3)nn2)cc1	Not Active

same assay, conditions: Staphylococcus aureus, MTCC 92, 24 h; read-out: IC50

SMILES	IC50 [µM]
COc1ccc(-n2cc(COc3ccc(/C=N/Nc4nc(-c5cc6cccc(Br)c6oc5=O)cs4)cc3)nn2)cc1	32.6

system: Pichia sporocuriosa; experiment: Antifungal activity against Issatchenkia hanoiensis MTCC 4755; type: functional; conditions: not given

SMILES	MIC [µM]
COc1ccc(-n2cc(COc3ccc(/C=N/Nc4nc(-c5cc6cc([N+](=O)[O-])cc([N+](=O)[O-])c6oc5=O)cs4)cc3)nn2)cc1	> 195

system: Pichia kudriavzevii; experiment: Antifungal activity against Candida krusei MTCC 3020; type: functional; conditions: not given

SMILES	MIC [µM]
COc1ccc(-n2cc(COc3ccc(/C=N/Nc4nc(-c5cc6cc([N+](=O)[O-])cc([N+](=O)[O-])c6oc5=O)cs4)cc3)nn2)cc1	> 195

system: Nakaseomyces glabratus; experiment: Antifungal activity against Candida glabrata MTCC 3019; type: functional; conditions: not given

SMILES	MIC [µM]
COc1ccc(-n2cc(COc3ccc(/C=N/Nc4nc(-c5cc6cc([N+](=O)[O-])cc([N+](=O)[O-])c6oc5=O)cs4)cc3)nn2)cc1	> 195

system: [Candida] aaseri; experiment: Antifungal activity against Candida aaseri MTCC 1962; type: functional; conditions: Yamadazyma aaseri

SMILES	MIC [µM]
COc1ccc(-n2cc(COc3ccc(/C=N/Nc4nc(-c5cc6cc([N+](=O)[O-])cc([N+](=O)[O-])c6oc5=O)cs4)cc3)nn2)cc1	> 195

system: Candida parapsilosis; experiment: Antifungal activity against Candida parapsilosis MTCC 1745; type: functional; conditions: Lodderomyces parapsilosis

SMILES	MIC [µM]
COc1ccc(-n2cc(COc3ccc(/C=N/Nc4nc(-c5cc6cc([N+](=O)[O-])cc([N+](=O)[O-])c6oc5=O)cs4)cc3)nn2)cc1	> 195

system: Candida albicans; experiment: Antifungal activity against Candida albicans MTCC 4748; type: functional; conditions: not given

SMILES	MIC [µM]
COc1ccc(-n2cc(COc3ccc(/C=N/Nc4nc(-c5cc6cc([N+](=O)[O-])cc([N+](=O)[O-])c6oc5=O)cs4)cc3)nn2)cc1	> 195

system: Candida albicans; experiment: Antifungal activity against Candida albicans MTCC 3958; type: functional; conditions: not given

SMILES	MIC [µM]
COc1ccc(-n2cc(COc3ccc(/C=N/Nc4nc(-c5cc6cc([N+](=O)[O-])cc([N+](=O)[O-])c6oc5=O)cs4)cc3)nn2)cc1	> 195

system: Candida albicans; experiment: Antifungal activity against Candida albicans MTCC 3018; type: functional; conditions: not given

SMILES	MIC [µM]
COc1ccc(-n2cc(COc3ccc(/C=N/Nc4nc(-c5cc6cc([N+](=O)[O-])cc([N+](=O)[O-])c6oc5=O)cs4)cc3)nn2)cc1	> 195

system: Candida albicans; experiment: Antifungal activity against Candida albicans MTCC 1637; type: functional; conditions: not given

SMILES	MIC [µM]
COc1ccc(-n2cc(COc3ccc(/C=N/Nc4nc(-c5cc6cc([N+](=O)[O-])cc([N+](=O)[O-])c6oc5=O)cs4)cc3)nn2)cc1	> 195

system: Candida albicans; experiment: Antifungal activity against Candida albicans MTCC 854; type: functional; conditions: not given

SMILES	MIC [µM]
COc1ccc(-n2cc(COc3ccc(/C=N/Nc4nc(-c5cc6cc([N+](=O)[O-])cc([N+](=O)[O-])c6oc5=O)cs4)cc3)nn2)cc1	> 195

system: Candida albicans; experiment: Fungicidal activity against Candida albicans MTCC 183; type: functional; conditions: not given

SMILES	MFC [µM]
COc1ccc(-n2cc(COc3ccc(/C=N/Nc4nc(-c5cc6cc([N+](=O)[O-])cc([N+](=O)[O-])c6oc5=O)cs4)cc3)nn2)cc1	12.2 (≈ 7.82 µg/mL)

system: Raoultella planticola; experiment: Bactericidal activity against Klebsiella planticola MTCC 530; type: functional; conditions: not given

SMILES	MBC [µM]
COc1ccc(-n2cc(COc3ccc(/C=N/Nc4nc(-c5cc6cccc(Br)c6oc5=O)cs4)cc3)nn2)cc1	12.3 (≈ 7.74 µg/mL)

system: Bacillus subtilis; experiment: Bactericidal activity against Bacillus subtilis MTCC 121; type: functional; conditions: not given

SMILES	MBC [µM]
COc1ccc(-n2cc(COc3ccc(/C=N/Nc4nc(-c5cc6cccc(Br)c6oc5=O)cs4)cc3)nn2)cc1	12.3 (≈ 7.74 µg/mL)

system: Staphylococcus aureus; experiment: Bactericidal activity against Staphylococcus aureus MTCC 96; type: functional; conditions: not given

SMILES	MBC [µM]
COc1ccc(-n2cc(COc3ccc(/C=N/Nc4nc(-c5cc6cccc(Br)c6oc5=O)cs4)cc3)nn2)cc1	12.3 (≈ 7.74 µg/mL)

system: Candida albicans; experiment: Antifungal activity against Candida albicans MTCC 227; type: functional; conditions: not given

SMILES	MIC [µM]
COc1ccc(-n2cc(COc3ccc(/C=N/Nc4nc(-c5cc6cc([N+](=O)[O-])cc([N+](=O)[O-])c6oc5=O)cs4)cc3)nn2)cc1	> 195

system: Candida albicans; experiment: Antifungal activity against Candida albicans MTCC 183; type: functional; conditions: not given

SMILES	MFC [µM]	MIC [µM]
COc1ccc(-n2cc(COc3ccc(/C=N/Nc4nc(-c5cc6cc([N+](=O)[O-])cc([N+](=O)[O-])c6oc5=O)cs4)cc3)nn2)cc1	12.2 (≈ 7.82 µg/mL)	6.1 (≈ 3.91 µg/mL)

system: Pseudomonas aeruginosa; experiment: Antibacterial activity against Pseudomonas aeruginosa MTCC 2453 assessed as inhibition of bacterial growth by microtiter broth dilution method; type: functional; conditions: not given

SMILES	MIC [µM]
COc1ccc(-n2cc(COc3ccc(/C=N/Nc4nc(-c5cc6cccc(Br)c6oc5=O)cs4)cc3)nn2)cc1	> 199
COc1ccc(-n2cc(COc3ccc(/C=N/Nc4nc(-c5cc6cc([N+](=O)[O-])cc([N+](=O)[O-])c6oc5=O)cs4)cc3)nn2)cc1	> 195

system: Escherichia coli; experiment: Antibacterial activity against Escherichia coli MTCC 739 assessed as inhibition of bacterial growth by microtiter broth dilution method; type: functional; conditions: not given

SMILES	MIC [µM]
COc1ccc(-n2cc(COc3ccc(/C=N/Nc4nc(-c5cc6cccc(Br)c6oc5=O)cs4)cc3)nn2)cc1	> 199
COc1ccc(-n2cc(COc3ccc(/C=N/Nc4nc(-c5cc6cc([N+](=O)[O-])cc([N+](=O)[O-])c6oc5=O)cs4)cc3)nn2)cc1	> 195

system: Raoultella planticola; experiment: Antibacterial activity against Klebsiella planticola MTCC 530 assessed as inhibition of bacterial growth by microtiter broth dilution method; type: functional; conditions: not given

SMILES	MIC [µM]
COc1ccc(-n2cc(COc3ccc(/C=N/Nc4nc(-c5cc6cccc(Br)c6oc5=O)cs4)cc3)nn2)cc1	6.1 (≈ 3.84 µg/mL)
COc1ccc(-n2cc(COc3ccc(/C=N/Nc4nc(-c5cc6cc([N+](=O)[O-])cc([N+](=O)[O-])c6oc5=O)cs4)cc3)nn2)cc1	> 195

system: Micrococcus luteus; experiment: Antibacterial activity against Micrococcus luteus MTCC 2470 assessed as inhibition of bacterial growth by microtiter broth dilution method; type: functional; conditions: not given

SMILES	MIC [µM]
COc1ccc(-n2cc(COc3ccc(/C=N/Nc4nc(-c5cc6cccc(Br)c6oc5=O)cs4)cc3)nn2)cc1	> 199
COc1ccc(-n2cc(COc3ccc(/C=N/Nc4nc(-c5cc6cc([N+](=O)[O-])cc([N+](=O)[O-])c6oc5=O)cs4)cc3)nn2)cc1	> 195

system: Bacillus subtilis; experiment: Antibacterial activity against Bacillus subtilis MTCC 121 assessed as inhibition of bacterial growth by microtiter broth dilution method; type: functional; conditions: not given

SMILES	MIC [µM]
COc1ccc(-n2cc(COc3ccc(/C=N/Nc4nc(-c5cc6cccc(Br)c6oc5=O)cs4)cc3)nn2)cc1	6.1 (≈ 3.84 µg/mL)
COc1ccc(-n2cc(COc3ccc(/C=N/Nc4nc(-c5cc6cc([N+](=O)[O-])cc([N+](=O)[O-])c6oc5=O)cs4)cc3)nn2)cc1	> 195

system: Staphylococcus aureus; experiment: Antibacterial activity against Staphylococcus aureus MLS16 MTCC 2940 assessed as inhibition of bacterial growth by microtiter broth dilution method; type: functional; conditions: not given

SMILES	MIC [µM]
COc1ccc(-n2cc(COc3ccc(/C=N/Nc4nc(-c5cc6cccc(Br)c6oc5=O)cs4)cc3)nn2)cc1	> 199
COc1ccc(-n2cc(COc3ccc(/C=N/Nc4nc(-c5cc6cc([N+](=O)[O-])cc([N+](=O)[O-])c6oc5=O)cs4)cc3)nn2)cc1	> 195

system: Staphylococcus aureus; experiment: Antibacterial activity against Staphylococcus aureus MTCC 96 assessed as inhibition of bacterial growth by microtiter broth dilution method; type: functional; conditions: not given

SMILES	MIC [µM]
COc1ccc(-n2cc(COc3ccc(/C=N/Nc4nc(-c5cc6cccc(Br)c6oc5=O)cs4)cc3)nn2)cc1	6.1 (≈ 3.84 µg/mL)
COc1ccc(-n2cc(COc3ccc(/C=N/Nc4nc(-c5cc6cc([N+](=O)[O-])cc([N+](=O)[O-])c6oc5=O)cs4)cc3)nn2)cc1	> 195
